Experimental findings from ChEMBL document CHEMBL3864161, “5-Aminopyrazole-4-carboxamide analogues are selective inhibitors of Plasmodium falciparum microgametocyte exflagellation and potential malaria transmission blocking agents” (Bioorg Med Chem Lett, 2016) are described below.

Series [1] is described as follows: Cytotoxicity against human HepG2 cells assessed as growth inhibition after 48 to 72 hrs by Alamar blue assay. In kind it is toxicity, cell-based.
The nature of series [2]: Inhibition of recombinant Plasmodium falciparum CDPK4 S147M mutant using Syntide 2 as substrate assessed as decrease in depletion of ATP by Kinase glo luciferase assay. (In general: Kinase-Glo reads ATP consumption through a luciferase reaction.)
A short description of series [3]: Cytotoxicity against human CRL8155 cells assessed as growth inhibition after 48 to 72 hrs by Alamar blue assay. In kind it is toxicity, cell-based. For orientation: The colour change of resazurin is a common sign of viable cells or microbes.
Series [4] addresses T1, Calmodulin-domain protein kinase 1 (Toxoplasma gondii, UniProt Q9BJF5).
T1 sequence (Q9BJF5 whole entry): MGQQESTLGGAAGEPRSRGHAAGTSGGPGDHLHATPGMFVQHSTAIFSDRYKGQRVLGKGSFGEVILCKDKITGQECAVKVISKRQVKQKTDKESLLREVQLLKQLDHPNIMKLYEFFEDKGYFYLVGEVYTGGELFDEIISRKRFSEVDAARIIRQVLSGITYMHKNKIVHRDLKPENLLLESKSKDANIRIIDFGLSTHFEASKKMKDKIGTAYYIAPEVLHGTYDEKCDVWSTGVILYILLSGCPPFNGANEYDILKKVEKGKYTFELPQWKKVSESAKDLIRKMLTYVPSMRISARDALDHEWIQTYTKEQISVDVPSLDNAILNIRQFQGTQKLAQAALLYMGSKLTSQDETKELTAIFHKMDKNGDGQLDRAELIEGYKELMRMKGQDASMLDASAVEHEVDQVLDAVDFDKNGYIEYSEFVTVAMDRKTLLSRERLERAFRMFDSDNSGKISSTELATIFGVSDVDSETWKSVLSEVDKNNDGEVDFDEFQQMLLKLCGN

Series [5] concerns Plasmodium falciparum. Briefly: Inhibition of male gametocytes exflagellation of Plasmodium falciparum at 1 uM relative to control. In kind it is functional.
For series [6], the system named is Plasmodium falciparum. Description: microbe, parasite or virus in culture. The note with it: read-out: INH.
For series [7], the target named is Proto-oncogene tyrosine-protein kinase Src (Homo sapiens, UniProt P12931).
Proto-oncogene tyrosine-protein kinase Src, sequence (P12931 2-536 limits assumed): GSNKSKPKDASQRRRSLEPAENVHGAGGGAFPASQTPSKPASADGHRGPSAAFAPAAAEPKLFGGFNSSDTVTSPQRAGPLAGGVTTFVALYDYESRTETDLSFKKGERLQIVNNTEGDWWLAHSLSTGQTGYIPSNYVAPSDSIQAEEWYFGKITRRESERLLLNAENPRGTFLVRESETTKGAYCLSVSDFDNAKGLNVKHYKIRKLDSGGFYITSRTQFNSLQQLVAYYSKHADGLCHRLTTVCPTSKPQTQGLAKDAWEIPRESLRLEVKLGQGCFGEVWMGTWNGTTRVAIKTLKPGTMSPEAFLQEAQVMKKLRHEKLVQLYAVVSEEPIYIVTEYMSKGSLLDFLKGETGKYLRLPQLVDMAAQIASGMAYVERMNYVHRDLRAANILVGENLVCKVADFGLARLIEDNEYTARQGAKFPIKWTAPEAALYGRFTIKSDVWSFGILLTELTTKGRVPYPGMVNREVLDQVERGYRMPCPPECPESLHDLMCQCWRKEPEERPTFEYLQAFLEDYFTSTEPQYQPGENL

The term EC50 denotes the concentration giving half of the maximal effect. As usually defined, the IC50 is the concentration that inhibits the measured activity by half. In the case of `CC(C)(C)n1nc(-c2cnc3cc(OC4CC4)ccc3c2)c(C(N)=O)c1N`, the EC50 in series [1] and in series [3] was above 30 µM throughout. Further, in series [2], the IC50 is above 2 µM.

`CCOc1ccc2cc(-c3nn(C(C)C(C)C)c(N)c3C(N)=O)cnc2c1` (stereo unspecified): the IC50 in series [4] came out at 0.018 µM.

As for `CCOc1ccc2cc(-c3nn(C(C)C)c(N)c3C(N)=O)ccc2n1`, it took 0.007 µM to reach half-maximal inhibition in series [4] (IC50).

As to `COc1ccc2cc(-c3nn(C(C)(C)C)c(N)c3C(N)=O)cnc2c1`, the EC50 in series [1] and in series [3] was above 30 µM each time. In series [5], the inhibition at 1 µM is 87%. Moreover, the IC50 in series [2] is above 2 µM.

In the case of `CCOc1ccc2cc(-c3nn(C(C)(C)C)c(N)c3C(N)=O)ccc2c1`, the EC50 in series [1] and in series [3] was above 30 µM each time. In series [5], this compound came in with an inhibition at 1 µM of 87%. In addition, the IC50 in series [2] was above 2 µM.

For the compound `CCOc1ccc2cc(-c3nn(C(C)C)c(N)c3C(N)=O)cnc2c1`, the EC50 in series [1] and in series [3] was above 30 µM each time. In series [5], this compound yielded an inhibition at 1 µM of 87%. Also, the IC50 in series [2] is above 2 µM.

Consider `CCOc1ccc2cc(-c3nn(C4CCCCC4)c(N)c3C(N)=O)ccc2n1`, for which the concentration giving a half-maximal response (EC50) in series [1] and in series [3] was above 30 µM throughout. In series [5], this compound gave an inhibition at 1 µM of 87%. Further, the IC50 in series [4] is 0.006 µM; in series [2] it was above 2 µM. Besides, the inhibition at 0.1 µM in series [6] is 39%.

As to `CC(C)(C)n1nc(-c2ccc3cc(O)ccc3c2)c(C(N)=O)c1N`, the EC50 in series [1] and in series [3] was above 30 µM throughout. Besides, the inhibition at 1 µM in series [5] was determined as 87%. Further, the IC50 in series [2] is above 2 µM. Also, in series [6], the inhibition at 0.1 µM was 64%.

`CC(C)n1nc(-c2ccc3nc(OC4CCC4)ccc3c2)c(C(N)=O)c1N`: the EC50 in series [1] and in series [3] was above 30 µM each time. The compound further gave an inhibition at 1 µM in series [5] of 87%. The figures for the IC50 in series [4] and in series [2] were 0.008 µM and above 2 µM, respectively.

`CCOc1ccc2cc(-c3nn(C(C)(C)C)c(N)c3C(N)=O)cnc2c1`: the EC50 in series [1] and in series [3] was above 30 µM each time. Further, in series [2], the IC50 was above 2 µM.

For `NC(=O)c1c(-c2ccc3ccccc3c2)nn(CC(F)(F)F)c1N`, the half-maximal effective concentration (EC50) in series [1] and in series [3] was above 30 µM throughout. Further, in series [5], the inhibition at 1 µM came out at 87%. Also, the IC50 in series [2] was above 2 µM.

Take `CC(C)(C)n1nc(-c2ccc3nc(OC4CC4)ccc3c2)c(C(N)=O)c1N`: half-maximal inhibition in series [4] (IC50) was put at 0.005 µM.

As for `CCOc1ccc2cc(-c3nn(C4CCOC4)c(N)c3C(N)=O)cnc2c1` (stereo unspecified), the IC50 is 0.012 µM in series [4] and above 10 µM in series [7].

As to `CCOc1ccc2cc(-c3nn(CC(C)(C)CO)c(N)c3C(N)=O)cnc2c1`, the EC50 in series [1] and in series [3] was above 30 µM in each case. Besides, in series [5], the inhibition at 1 µM was 87%. Further, the values for the IC50 in series [2] and in series [7] were above 2 µM and above 10 µM, respectively. The inhibition at 0.1 µM in series [6] is 81%.

With `CCOc1ccc2cc(-c3nn(C(C)C4CC4)c(N)c3C(N)=O)cnc2c1` (stereo unspecified), the IC50 in series [4] was determined as 0.014 µM.

In series [4], `CCOc1ccc2cc(-c3nn(C(C)C(C)(C)CO)c(N)c3C(N)=O)cnc2c1` (stereo unspecified) gave an IC50 of 0.024 µM.
